Test results from publication PMC10747602, “Dose Response, Dosimetric, and Metabolic Evaluations of Replacement PFAS Perfluoro-(2,5,8-trimethyl-3,6,9-trioxadodecanoic) Acid (HFPO-TeA)” (Toxics, 2023).
Values joined by “and” are separate entries in the source; they are usually repeats but may differ in a detail not shown here. Equal values may be shown once.

Assays:
[1] = Five-day oral gavage exposure: body weight, liver weights, clinical observations; format: in vivo, Sprague Dawley rats; conditions: for Body Weight Change / Liver Weight / Relative Liver Weight / Absolute Liver Weight / Body Weight Gain: 5 days
Description: The in vivo exposure study was performed under a contract to Jacobs Technology, Inc. (Dallas, TX, USA; EP-C-15-008) and BioSpyder Technologies, Inc. (Carlsbad, CA, USA; 68HE0B20P0250). Animal handling was subcontracted out and performed by Integrated Laboratory Systems (ILS, Morrisville, NC, USA). All procedures followed Animal Welfare Act Regulations 9 CFR 1A, 1–4, and animals were handled and treated according to the Guide for the Care and Use of Laboratory Animals. Male and female Sprague Dawley rats (n = 36/sex) were purchased from Charles River Laboratory (Raleigh, NC, USA) and allowed to acclimate for 7–10 days before initial dosing. Animals were assigned to groups using analysis of variance (ANOVA) to ensure the mean body weights of the groups were not statistically different. Same-sex pairs were housed in polycarbonate cages (23 cm × 44 cm × 21 cm) with hardwood bedding (Northeastern Products Corp., Warrensburg, NY, USA), changed twice per week. Rats were kept in rooms maintained between 20.0 and 25.0 °C and 30.0 and 70.0% humidity while exposed to a 12 h light–dark cycle. Certified Purina Pico Chow No. 5002 (Ralston Purina Co., St. Louis, MO, USA) and reverse osmosis (RO)-treated tap water (City of Durham, NC, USA) were available ad libitum. Rats were 8–10 weeks old at the time of dosing and weighed between 228 and 302 g (males) and 208 and 232 g (females).
Male and female rats (n = 4/sex, dose, and time point) were dosed by gavage (5 mL/kg bodyweight) once daily for five days with water (vehicle control) or HFPO-TeA at eight half-log dose levels ranging from 0.3 to 335.2 mg/kg/day (i.e., 0.3, 0.9, 2.3, 6.3, 17, 45.9, 124, and 335.2). The results reported here are part of a larger study, for which the main purpose was to use benchmark dose–response modeling of transcriptomic data to identify a gene set basis for the point of departure (POD).
Clinical observations were performed prior to first administration and at termination. Moribundity and mortality were assessed twice daily on weekdays and once daily on weekends. Animals found moribund were euthanized by carbon dioxide inhalation and death was confirmed by cervical dislocation.
Whole blood was collected from the retro-orbital plexus under isoflurane anesthesia 2 h following the first dose and by cardiac puncture 24 h after the last dosage. Blood was stored in anticoagulant potassium ethylenediaminetetraacetic acid (K3EDTA)-coated vacutainers, and then processed to isolate plasma via centrifugation. Animals were euthanized via carbon dioxide asphyxiation and subsequent exsanguination. Liver was collected, weighed, cubed, and divided into three aliquots. One aliquot of tissue was flash-frozen in liquid nitrogen and stored at −80 °C for analytical chemistry analyses. The remaining two aliquots were placed in RNALater and frozen for use in the companion transcriptomic study. Liver and plasma samples were received at the U.S. EPA Center for Computational Toxicology and Exposure, Advanced Analytical Chemistry Methods Branch in Research Triangle Park, North Carolina, USA, and stored at −80 °C prior to extraction.

rats = test system: rats; parameters: method as in PMID 28962433, PMID 30920876; conditions: exposures up to 500 mg/kg/day; cited from earlier work
[2] = 0.3 mg/kg/day, F, individual rats
[3] = 0.3 mg/kg/day, F, mean ± SD n=4
[4] = 0.3 mg/kg/day, M, individual rats
[5] = 0.3 mg/kg/day, M, mean ± SD n=4
[6] = 0.9 mg/kg/day, F, individual rats
[7] = 0.9 mg/kg/day, F, mean ± SD n=4
[8] = 0.9 mg/kg/day, M, individual rats
[9] = 0.9 mg/kg/day, M, mean ± SD n=4
[10] = 2.3 mg/kg/day, F, individual rats
[11] = 2.3 mg/kg/day, F, mean ± SD n=4
[12] = 2.3 mg/kg/day, M, individual rats
[13] = 2.3 mg/kg/day, M, mean ± SD n=4
[14] = 6.3 mg/kg/day, F, individual rats
[15] = 6.3 mg/kg/day, F, mean ± SD n=4
[16] = 6.3 mg/kg/day, M, individual rats
[17] = 6.3 mg/kg/day, M, mean ± SD n=4
[18] = 17 mg/kg/day, F, individual rats
[19] = 17 mg/kg/day, M, individual rats

## O=C(O)C(F)(OC(F)(F)C(F)(OC(F)(F)C(F)(OC(F)(F)C(F)(F)C(F)(F)F)C(F)(F)F)C(F)(F)F)C(F)(F)F (stereo not drawn) [HFPO-TeA, perfluoro-(2,5,8-trimethyl-3,6,9-trioxadodecanoic) acid]
[1]; [2]
  Body Weight Change: 11.3 g and 8.5 g and 1.0 g and 5.1 g
  Liver Weight: 10.2929 g and 10.0087 g and 10.5040 g and 10.1866 g
  Relative Liver Weight: 4.458 g% and 4.431 g% and 4.573 g% and 4.489 g%
[1]; [3]
  Absolute Liver Weight: 10.25 ± 0.2070 g
  Body Weight Gain: 6.5 ± 4.4 g
  Relative Liver Weight: 4.488 ± 0.062 g%
[1]; [4]
  Body Weight Change: 28.2 g and 40.1 g and 48.5 g and 32.0 g
  Liver Weight: 13.9494 g and 16.3796 g and 15.4580 g and 15.2495 g
  Relative Liver Weight: 4.953 g% and 4.616 g% and 4.795 g% and 4.445 g%
[1]; [5]
  Absolute Liver Weight: 15.2591 ± 1.0017 g
  Body Weight Gain: 37.2 ± 9.0 g
  Relative Liver Weight: 4.702 ± 0.220 g%
[1]; [6]
  Body Weight Change: 8.6 g and 18.4 g and 10.4 g and 11.3 g
  Liver Weight: 12.6621 g and 11.3910 g and 11.9531 g and 11.5466 g
  Relative Liver Weight: 5.327 g% and 5.016 g% and 5.192 g% and 4.809 g%
[1]; [7]
  Absolute Liver Weight: 11.8882 ± 0.5678 g
  Body Weight Gain: 12.2 ± 4.3 g
  Relative Liver Weight: 5.086 ± 0.224 g%
[1]; [8]
  Body Weight Change: 46.0 g and 38.3 g and 37.4 g and 36.7 g
  Liver Weight: 16.7977 g and 16.8117 g and 16.3850 g and 18.5738 g
  Relative Liver Weight: 5.241 g% and 5.318 g% and 5.059 g% and 5.544 g%
[1]; [9]
  Absolute Liver Weight: 17.1421 ± 0.9748 g
  Body Weight Gain: 39.6 ± 4.3 g
  Relative Liver Weight: 5.291 ± 0.201 g%
[1]; [10]
  Body Weight Change: 21.5 g and 10.9 g and 8.5 g and 8.3 g
  Liver Weight: 12.3341 g and 12.8755 g and 12.0585 g and 12.4504 g
  Relative Liver Weight: 5.372 g% and 5.236 g% and 5.345 g% and 5.231 g%
[1]; [11]
  Absolute Liver Weight: 12.4296 ± 0.3397 g
  Body Weight Gain: 12.3 ± 6.2 g
  Relative Liver Weight: 5.296 ± 0.073 g%
[1]; [12]
  Body Weight Change: 37.5 g and 45.8 g and 38.2 g and 34.6 g
  Liver Weight: 17.9851 g and 19.2395 g and 20.9175 g and 18.7875 g
  Relative Liver Weight: 5.558 g% and 5.913 g% and 6.285 g% and 5.910 g%
[1]; [13]
  Absolute Liver Weight: 19.2324 ± 1.2374 g
  Body Weight Gain: 39.0 ± 4.8 g
  Relative Liver Weight: 5.916 ± 0.297 g%
[1]; [14]
  Body Weight Change: -11.8 g and -21.3 g and -2.2 g and -35.7 g
  Liver Weight: 10.2774 g and 9.4969 g and 12.9764 g and 9.4275 g
  Relative Liver Weight: 4.807 g% and 5.025 g% and 6.242 g% and 5.243 g%
[1]; [15]
  Absolute Liver Weight: 10.5446 ± 1.6664 g
  Body Weight Gain: -17.8 ± 14.3 g
  Relative Liver Weight: 5.329 ± 0.634 g%
[1]; [16]
  Body Weight Change: 27.5 g and 43.2 g and 31.7 g and 24.7 g
  Liver Weight: 19.3187 g and 25.7576 g and 22.4062 g and 22.3377 g
  Relative Liver Weight: 6.254 g% and 7.468 g% and 6.965 g% and 7.243 g%
[1]; [17]
  Absolute Liver Weight: 22.4551 ± 2.6306 g
  Body Weight Gain: 31.8 ± 8.1 g
  Relative Liver Weight: 6.983 ± 0.527 g%
[1]; [18]
  Body Weight Change: -62.7 g and -52.1 g and -49.6 g and -56.3 g
  Liver Weight: 9.7114 g and 9.8972 g and 9.1738 g and 9.9260 g
  Relative Liver Weight: 6.002 g% and 5.659 g% and 5.567 g% and 5.958 g%
[1]; 17 mg/kg/day, F, mean ± SD n=4
  Absolute Liver Weight: 9.6771 ± 0.3488 g
  Body Weight Gain: -55.2 ± 5.7 g
  Relative Liver Weight: 5.796 ± 0.216 g%
[1]; [19]
  Body Weight Change: -36.3 g and -50.7 g and -59.7 g and -59.2 g
  Liver Weight: 13.4969 g and 13.8697 g and 12.4995 g and 13.1122 g
  Relative Liver Weight: 5.386 g% and 5.593 g% and 5.511 g% and 5.909 g%
[1]; 17 mg/kg/day, M, mean ± SD n=4
  Absolute Liver Weight: 13.2446 ± 0.5851 g
  Body Weight Gain: -51.5 ± 10.9 g
  Relative Liver Weight: 5.600 ± 0.223 g%
[1]; female rats, 6.3 mg/kg/day dose group
  Abnormal clinical observations: piloerection and thinness
[1]; female rats, 17 mg/kg/day dose group
  Abnormal clinical observations (in addition): coldness to touch and hunching
[1]; female rats, 45.9 mg/kg/day
  Abnormal clinical observations (alongside previous signs): Abnormal breathing
[1]; female rats, 124 mg/kg/day
  Abnormal clinical observations: decreased movement and lethargy
[1]; male rats, 17 and 45.9 mg/kg/day dose groups
  Abnormal clinical observations: lethargy, piloerection, thinness, hunching, coldness to touch, abnormal breathing, and decreased movement

## O=C(O)C(F)(OC(F)(F)C(F)(F)C(F)(F)F)C(F)(F)F (stereo not drawn) [HFPO-DA, perfluoro-2-methyl-3-oxahexanoic acid]
rats
  premature mortality: no reported premature mortality
